Measurements taken from ChEMBL document CHEMBL3988442, “University of Dundee, Small-Polar-MMV Screening Library” (2021).

Biological target: Tryptophan--tRNA ligase (Mycobacterium tuberculosis (strain ATCC 25618 / H37Rv), UniProt P9WFT3)
Assay: Biochemical assay for Mt-TrpRS
Assay type: functional

Tryptophan--tRNA ligase, sequence (P9WFT3 whole entry): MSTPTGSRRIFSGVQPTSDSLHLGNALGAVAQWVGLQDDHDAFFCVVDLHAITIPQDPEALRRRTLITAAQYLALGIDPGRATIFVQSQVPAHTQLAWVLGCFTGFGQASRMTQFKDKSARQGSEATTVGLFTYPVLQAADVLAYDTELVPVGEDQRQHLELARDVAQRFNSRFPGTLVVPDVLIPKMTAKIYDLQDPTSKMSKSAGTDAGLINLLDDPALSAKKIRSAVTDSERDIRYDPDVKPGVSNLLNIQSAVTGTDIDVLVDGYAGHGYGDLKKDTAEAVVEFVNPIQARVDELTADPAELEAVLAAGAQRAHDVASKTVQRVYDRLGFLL

| Structure (SMILES) | IC50 [µM] |
| --- | --- |
| Cc1ccc2c(c1)[C@@H](CC(=O)N(C)C)CCO2 | > 195 |
| Cn1cc(C(=O)NCc2cncc3c2CCNC3)cn1 | > 195 |
| NC(=O)C1(Cc2ccc(-c3ccccc3)cc2)CCNC1 (configuration not stated) | > 195 |
| Cc1nc(O)cc(C2CCN(Cc3ccc(F)c(F)c3)C2)n1 (configuration not stated) | > 195 |
| O=C(c1ccco1)N1C(CO)[C@]2(O)CC[C@H]1CC2 (some centres not stated) | > 195 |
| NCCC(=O)Nc1ccc(-c2ccccc2)cc1 | > 195 |
| COc1cccc(C2=CCN(CCN3CCOC3=O)CC2)c1 | > 195 |
| CCO[C@H]1CC[C@H]2[C@H]1OCCN2C(=O)COc1ccccc1 | > 195 |
| O=C(Cc1cccs1)N1Cc2nc(CN3CCCC3)oc2C1 | > 195 |
| CC(C)N(C)Cc1cncc2c1CCN(CC(=O)N(C)C)C2 | > 195 |
| CC(O)CN1CCC(=O)N(Cc2ccccc2)Cc2ccccc21 (configuration not stated) | > 195 |
| O=S1(=O)CCC(N(Cc2nc3ccccc3o2)Cc2cccs2)C1 (configuration not stated) | > 195 |
| CCCNc1ccc(C(=O)NCCc2cccc(OC)c2)cn1 | > 195 |
| CNC(=O)c1cnc2c(C)csc2c1 | > 195 |
| C[C@]1(O)CN(CCC(N)=O)CC[C@@H]1Oc1cccc(F)c1 | > 195 |
| O=C1CCC(=O)N1c1nn(Cc2c(F)cccc2Cl)cc1Cl | > 195 |
| CC(C)CC(=O)N1CC(=O)N(Cc2ccco2)CC(O)C1 (configuration not stated) | > 195 |
| CC(C)(C)C(=O)CN1Cc2ccccc2NCCC1=O | > 195 |
| Cc1nc(CN2CCC3(C2)CN(Cc2ccco2)C3)cs1 | > 195 |
| Cc1cc2cc(C(=O)N3C[C@H](O)[C@]4(CCCO4)C3)ccc2o1 | > 195 |
| Cc1nc(C)c(C(=O)NCCNC(=O)Cc2ccc(F)cc2)s1 | > 195 |
| CCN(c1ccc(C(=O)N2CCCC2c2cnn(C)c2)cn1)C(C)C (configuration not stated) | > 195 |
| O=C(c1ccc(F)cc1)N1C[C@@H]2COC[C@]2(COc2cccnc2)C1 | > 195 |

| Structure (SMILES) | IC50 [µM] |
| --- | --- |
| CS(=O)(=O)N1CCCC(Cc2cncc(Br)c2)CC1 (configuration not stated) | > 195 |
| Cc1c(C(=O)N2CCC(O)(CN(C)C)C2)c2ccccc2n1C (configuration not stated) | > 195 |
| COCCN1C(=O)CC[C@@H]2[C@H]1CCN2S(=O)(=O)c1cccs1 | > 195 |
| CN(CC(=O)Nc1cccnc1)C1CCCN(c2cccnn2)C1 (configuration not stated) | > 195 |
| O=C(c1cc2c(s1)CCC2)N1CCCC(c2cnccn2)C1 (configuration not stated) | > 195 |
| C=Cn1ncc(CN2CCC(c3ncc(Cl)cc3S(C)(=O)=O)CC2)c1C | > 195 |
| c1cc(-c2cnc(C3CCNCC3)cn2)n[nH]1 | > 195 |
| COc1cccc(CN2CC(O)CN(C(=O)C(C)(C)C)CC2=O)c1OC (configuration not stated) | > 195 |
| Cc1nc(C2CCCN2CC(=O)N(C)Cc2ccsc2)no1 (configuration not stated) | > 195 |
| c1ccc(CO[C@@H]2CN(Cc3ccoc3)[C@@H]3COC[C@@H]32)nc1 | > 195 |
| CN(C)CC1(O)CCN(S(=O)(=O)c2cccc(F)c2)C1 (configuration not stated) | > 195 |
| COc1ccc(CN2C[C@@H](O)[C@](O)(CNC(=O)c3ccccn3)C2)cc1 | > 195 |
| Cc1cccc(C2CCCN2S(=O)(=O)N(C)C)n1 (configuration not stated) | > 195 |
| CN(C)c1cncc(C2CCN(CC(N)=O)CC2)n1 | > 195 |
| Nc1nc2c(c(NC3CCCC3)n1)CCN(C(=O)C1CCOC1)CC2 (configuration not stated) | > 195 |
| Cc1c[nH]nc1C1CCN(S(=O)(=O)N(C)C)C1 (configuration not stated) | > 195 |
| CC(CC#N)n1ccc(C(F)(F)F)n1 (configuration not stated) | > 195 |
| Cc1cc(N2CCC(c3n[nH]c4nccnc34)C2)ncn1 (configuration not stated) | > 195 |
| O=C(NCCN1CCOCC1)Nc1cnc2cc(Cl)ccc2c1O | > 195 |
| Cn1nc(C2CN(C(=O)c3ccncc3)C2)c2nccnc21 | > 195 |
| CC(=O)NC1CCCN(C(=O)CCc2cccnc2)C1 (configuration not stated) | > 195 |
| CC(C)OCc1nn(C)c2c1CN(Cc1cccs1)CC2 | > 195 |
| CC(=O)Nc1nc(C2CCN(C(=O)c3cncs3)CC2)cs1 | > 195 |

| Structure (SMILES) | IC50 [µM] |
| --- | --- |
| CN1CCC(c2cccc(Cc3ccccc3)n2)CC1 | > 195 |
| CC(=O)N(C)C(c1cccc(F)c1)c1ccccn1 (configuration not stated) | > 195 |
| Cc1cnn(CCCNC2Cc3ccccc3C2)c1 | > 195 |
| CN(C)CCNC(=O)c1nc2c(s1)CCCN2C(=O)C1CC1 | > 195 |
| CO[C@H]1CN(Cc2ccc(F)c(F)c2)C[C@@]12CCCO2 | > 195 |
| CN(CCC(=O)N1CCCC(Cc2cccnc2)C1)Cc1cccnc1 (configuration not stated) | > 195 |
| CS(=O)(=O)c1nccn1CCOc1ccccc1F | > 195 |
| CCCn1cc(CN2CCCC2c2nccc(CN(C)C)n2)cn1 (configuration not stated) | > 195 |
| NCC(=O)N1CCCC1c1n[nH]cc1-c1ccccc1F (configuration not stated) | > 195 |
| CCc1ccc(C(=O)N2CCN(CC(O)CC)CC2)o1 (configuration not stated) | > 195 |
| Cc1cnn(-c2ccc(S(N)(=O)=O)cc2F)c1 | > 195 |
| CCN1CCC2(CC1)CC(CC(=O)N(C)C)c1ccc(F)cc12 (configuration not stated) | > 195 |
| c1cn(-c2cnc(C3CCNCC3)cn2)cn1 | > 195 |
| CCOc1ccc(N(C)Cc2nnc(C)o2)cc1 | > 195 |
| NC(=O)C1CCN(C(=O)c2ccn(-c3ccc(F)cc3)n2)CC1 | > 195 |
| CN(C)c1nccc(C2CCN(C3CCCCC3O)CC2)n1 (configuration not stated) | > 195 |
| CC(=O)NC[C@]1(O)CCN(C(=O)c2ccc(F)c(Cl)c2)C[C@H]1O | > 195 |
| CN1CC[C@@H]2OC[C@H](C(=O)N(C)Cc3ccccn3)C[C@@H]2C1 | > 195 |
| Cn1nccc1CN1CCCC(COc2ccccc2F)C1 (configuration not stated) | > 195 |
| c1cnnc(N2CCCC(NCc3nc(-c4ccco4)no3)C2)c1 (configuration not stated) | > 195 |
| Cn1cccc1C(=O)N1CC2(CCN(C(=O)c3cccnc3)C2)C1 | > 195 |
| Cc1csc(CCNC(=O)NC(C)Cn2cccn2)n1 (configuration not stated) | > 195 |
| Cn1cnnc1C1CCN(C(=O)CCOc2ccc(Cl)cc2)CC1 | > 195 |

| Structure (SMILES) | IC50 [µM] |
| --- | --- |
| Cc1cc(CN2CCN(C(=O)NCc3ccco3)CC2)no1 | > 195 |
| Cc1cnn(CC2CCCN2Cc2nnc(C(C)C)o2)c1 (configuration not stated) | > 195 |
| CCOCC1c2c(ncn2C)CCN1C(=O)c1cscn1 (configuration not stated) | > 195 |
| Cc1ccc(S(=O)(=O)Nc2ccc(=O)n(C)c2)c(Br)c1 | > 195 |
| CS(=O)(=O)NC1CCN(C(=O)NCC2CCCO2)CC1 (configuration not stated) | > 195 |
| CN1CCC(c2cncc(-c3cccc(Cl)c3)n2)CC1 | > 195 |
| O=C(c1cccnn1)N1C[C@@H]2CC[C@H](Oc3cccc(F)c3)[C@@H]2C1 | > 195 |
| O=C1CCCN1CCCC(=O)N1CCCC(Cc2cccnc2)C1 (configuration not stated) | > 195 |
| O=C1NC(=O)c2c3c(nc(O)c21)CCCC3 | > 195 |
| CC(=O)NC(=O)C1(CCCc2ccncc2)CCN1 (configuration not stated) | > 195 |
| O=C(Cc1cccc(O)c1)N1CCCC(O)(CN2CCCC2)CC1 (configuration not stated) | > 195 |
| CCOC1CC2(CCN(Cc3nccn3C)CC2)C1 | > 195 |
| O=C1CN(CC2CC2)Cc2nc(NCc3ccccc3)sc21 | > 195 |
| COc1cccc(CNc2cnn(CC(F)F)c2)c1 | > 195 |
| Cn1ncc(NC(=O)c2noc3c2CCCC3)c1C(N)=O | > 195 |
| Cc1cc(CNC(=O)N(Cc2ccc(F)cc2F)C2CC2)no1 | > 195 |
| COCC(=O)N1CCO[C@]2(CCC[C@H]2COC)C1 | > 195 |
| CN1CCCC(CCCc2cccnc2)(C(N)=O)C1 (configuration not stated) | > 195 |
| CNC(=O)c1cc(C2CCCNC2)n[nH]1 (configuration not stated) | > 195 |
| O=C(NCCc1ccncc1)c1cccnc1OCC(F)(F)F | > 195 |
| OC1CCN(Cc2c(-c3ccco3)[nH]c3ncccc23)CC1 | > 195 |
| CC(C)N1CCO[C@@H]2CN(C(=O)NCc3ccccc3)CC[C@@H]2C1 | > 195 |
| O=C1CC[C@H]2[C@H](CCN2c2ncccn2)N1c1ccccc1 | > 195 |
